Assay results reported in the supplement of paper PMC10307832.

Experiments:
Assay in all cases: relative viability (nuclei count vs DMSO), 5 days (fraction); higher = more cells survive
[1] = tested on: NCI-H2023
How it was run: (§1)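 Relative viability divides the nuclei count in treated wells by that in vehicle wells. Lung cancer cell lines were seeded in 1536-well plates, dosed by pin tool the next day, and fixed and stained after 5 days in one step with final 0.05% Triton X-100, 1% formaldehyde and 1 ug/ml Hoechst. Dosing was a single drug or a fixed anchor-drug dose plus five library-drug doses (not always all listed) in √10 steps, and values are medians of duplicate plates imaged at 4×.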

[2] = tested on: NCI-H2085
How it was run: as §1

[3] = tested on: NCI-H2126
How it was run: as §1

[4] = tested on: NCI-H2347
How it was run: as §1

[5] = tested on: NCI-H322M
How it was run: as §1

[6] = tested on: NCI-H647
How it was run: as §1

[7] = tested on: NCI-H661
How it was run: as §1

[8] = tested on: NCI-H727
How it was run: as §1

[9] = tested on: PC-14
How it was run: as §1

[10] = tested on: SK-LU-1
How it was run: as §1

[11] = tested on: SW 1573
How it was run: as §1

C=C1C(=O)O[C@@H](CCCCCCCC)[C@@H]1C(=O)O [C-75] + C[C@]1(O)C[C@@H](c2nc(-c3ccc4ccc(-c5ccccc5)nc4c3)c3c(N)nccn32)C1 [Linsitinib] (partner 1 µM)
relative viability ([1]; first compound 0.8 µM): 0.473
relative viability ([1]; first compound 2.53 µM): 0.658
relative viability ([1]; first compound 8 µM): 0.753
relative viability ([2]; first compound 0.08 µM): 0.935
relative viability ([2]; first compound 0.253 µM): 0.801
relative viability ([2]; first compound 0.8 µM): 0.88
relative viability ([2]; first compound 2.53 µM): 0.806
relative viability ([2]; first compound 8 µM): 0.792
relative viability ([3]; first compound 0.08 µM): 0.698
relative viability ([3]; first compound 0.253 µM): 0.783
relative viability ([3]; first compound 0.8 µM): 0.703
relative viability ([3]; first compound 2.53 µM): 0.683
relative viability ([3]; first compound 8 µM): 0.711
relative viability ([4]; first compound 0.08 µM): 1.01
relative viability ([4]; first compound 0.253 µM): 0.959
relative viability ([4]; first compound 0.8 µM): 0.598
relative viability ([4]; first compound 2.53 µM): 0.88
relative viability ([4]; first compound 8 µM): 1.07
relative viability ([5]; first compound 0.08 µM): 0.887
relative viability ([5]; first compound 0.253 µM): 1.05
relative viability ([5]; first compound 0.8 µM): 0.999
relative viability ([5]; first compound 2.53 µM): 0.816
relative viability ([5]; first compound 8 µM): 1.08
relative viability ([6]; first compound 0.08 µM): 1.18
relative viability ([6]; first compound 0.253 µM): 1.31
relative viability ([6]; first compound 2.53 µM): 0.903
relative viability ([6]; first compound 8 µM): 0.823
relative viability ([7]; first compound 0.08 µM): 0.504
relative viability ([7]; first compound 0.253 µM): 0.571
relative viability ([7]; first compound 0.8 µM): 0.461
relative viability ([7]; first compound 2.53 µM): 0.491
relative viability ([7]; first compound 8 µM): 0.457
relative viability ([8]; first compound 0.08 µM): 0.277
relative viability ([8]; first compound 0.253 µM): 0.614
relative viability ([8]; first compound 0.8 µM): 0.263
relative viability ([8]; first compound 2.53 µM): 0.183
relative viability ([8]; first compound 8 µM): 0.283
relative viability ([9]; first compound 0.08 µM): 0.956
relative viability ([9]; first compound 0.253 µM): 0.818
relative viability ([9]; first compound 0.8 µM): 1.03
relative viability ([9]; first compound 2.53 µM): 0.778
relative viability ([9]; first compound 8 µM): 0.939
relative viability ([10]; first compound 0.08 µM): 1.28
relative viability ([10]; first compound 0.253 µM): 1.07
relative viability ([10]; first compound 0.8 µM): 1.05
relative viability ([10]; first compound 2.53 µM): 0.911
relative viability ([10]; first compound 8 µM): 0.636
relative viability ([11]; first compound 0.08 µM): 0.819
relative viability ([11]; first compound 0.253 µM): 0.962
relative viability ([11]; first compound 0.8 µM): 0.833
relative viability ([11]; first compound 2.53 µM): 0.615
relative viability ([11]; first compound 8 µM): 0.705
